Patent publication US10933141B2, “Formulations with reduced degradation of polysorbate” (Genentech, Inc., priority 2015, dated 2021)

Legend:
[1] = test system: Rabbit Liver Esterase (RLE); experiment: Enzymatic degradation of PS20 by RLE, PS20 by RP-ELSD; assay type: biochemical; conditions: 15% w/v HP-β-CD; 0.02% PS20, pH 5.5; 15 μg/mL RLE, 5 hours, room temperature
Description: (§1) Polysorbate concentration was determined using reverse phase ultra-performance liquid chromatography using evaporative light scattering detection (RP-ELSD). Samples were analyzed using an Agilent 1100 series high performance liquid chromatography system (HPLC) fitted with a Waters Oasis MAX cartridge column (20×2.1 mm, 30 μm particle size). The HPLC system was set up with a switching valve directing column flow-through to either waste or a Varian 380-LC evaporative light scattering detector set to 100° C. The mobile phases consisted of 2% formic acid in water (Pump A) and 2% formic acid in isopropanol (Pump B). […] In order to quantitate the PS20 concentration, a standard curve was generated by injecting 20 μL of solutions containing between 0% w/v and 0.4% w/v PS20. For excipients which affected the migration time of PS20 through the column, PS20 standard curve solutions containing the relevant excipient were included in the analysis to facilitate accurate quantitation.
The effect of 15% HP-β-CD on the enzymatic degradation of PS20 was measured. […]
PPL digestion was stopped by heat inactivation in an 85° C. water bath for 30 minutes. LPL and RLE digestion could not be stopped by heat inactivation, so the samples were analyzed immediately for PS20 content. […]

[2] = biological target: T1, porcine pancreatic lipase (PPL) (Sus scrofa, UniProt P00591); experiment: Enzymatic degradation of PS80 by PPL (RP-ELSD, HIAC); assay type: biochemical
T1 construct: purchased Sigma Aldrich Inc. (St. Louis, Mo.)
T1 sequence (P00591 1-450): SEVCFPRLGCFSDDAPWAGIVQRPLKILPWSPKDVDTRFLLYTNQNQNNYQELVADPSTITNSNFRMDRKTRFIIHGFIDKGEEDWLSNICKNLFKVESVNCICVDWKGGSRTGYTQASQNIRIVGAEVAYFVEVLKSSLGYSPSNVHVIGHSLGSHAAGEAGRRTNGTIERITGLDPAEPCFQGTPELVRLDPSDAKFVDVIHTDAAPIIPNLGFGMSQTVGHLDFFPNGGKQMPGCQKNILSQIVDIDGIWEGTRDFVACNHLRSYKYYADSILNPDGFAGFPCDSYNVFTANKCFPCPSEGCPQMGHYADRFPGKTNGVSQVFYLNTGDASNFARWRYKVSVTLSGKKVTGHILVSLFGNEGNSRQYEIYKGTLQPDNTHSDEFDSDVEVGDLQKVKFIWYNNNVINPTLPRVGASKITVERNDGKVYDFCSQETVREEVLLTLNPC
Description: (§2) Subvisible particles were measured using a HIAC 9703 particle counter equipped with an HRDL-150 detector and a 1 mL syringe. Performance of the instrument was verified with NIST-traceable 2 μm Polystyrene bead standards at 3000 counts/mL before each measurement session. The HIAC instrument was configured to a 10 mL/min flow rate, 0.1 mL tare volume, and 0.4 mL sample volume. The samples were analyzed using 4 runs of 0.4 mL sips, with the first run of each sample was discarded to prevent measurement error due to sample carryover. Results were reported as the average values for 1.4, 2, 5, 10, 15, and 25, 50 μm analysis filter sizes.
as §1, with “size).” for “size). The HPLC system was set up with a switching valve directing column flow-through to either waste or a Varian 380-LC evaporative light scattering detector set to 100° C. The mobile phases consisted of 2% formic acid in water (Pump A) and 2% formic acid in isopropanol (Pump B).”, “quantitation. […]” for “quantitation.”

[3] = Solubilization of particles from oxidative PS20 degradation (HIAC); assay type: physicochemical; conditions: 5% and 15% (w/v) HP-β-CD; 0.02% (w/v) PS20 stored 27 months at 5° C.
Description: as §2
Different concentrations of HP-β-CD were tested for their ability to solubilize particles produced as a result of oxidative PS20 degradation. Solutions of concentrated HP-β-CD were prepared in triplicate in pH 5.5 buffer. Protein-free samples containing 0.02% (w/v) PS20 were stored for 27 months at 5° C., resulting in oxidative PS20 degradation and the formation of visible and subvisible particles related to PS20 degradation products. Each degraded PS20 solution was divided into 3 aliquots and concentrated excipient was spiked into each the aliquots. […] The following day, subvisible particle counts were measured using a HIAC 9703 particle counter.

[4] = biological target: T1, porcine pancreatic lipase (PPL); experiment: Kinetics of enzymatic PS20 degradation by PPL; assay type: biochemical; conditions: 15% sucrose; 0.02% (w/v) PS20; 15 μg/mL PPL, about 25° C., 180 hours
Description: as §1, with “B). The pump gradient was isocratic at 10% pump B during equilibration, linear to 20% pump B for 1 minute, isocratic at 20% pump B for 2.4 minutes, linear to 100% pump B for 0.1 minutes, isocratic at 100% pump B for 1.1 minutes, linear to 10% pump B for 0.1 minutes, and finally isocratic at 10% pump B for 1.9 minutes.” for “B).”, “quantitation. […]” for “quantitation.”

2-hydroxypropyl-β-cyclodextrin [HP-β-CD]
Polysorbate 20 (Relative %) [1]: 62.7%
subvisible particulates (SVP/mL) after PPL degradation of PS80 ([2]; 15% (w/v) HP-β-CD vs 0%, ≥1.4 to ≥25 micron, HIAC): fewer SVP/mL
decrease in PS80 ([2]; 15% (w/v) HP-β-CD, 0.02% (w/v) PS80, pH 5.5, 15 μg/mL PPL, 5 hours, room temperature): approximately 4%
SVP relative to control sample (0% HP-β-CD) [3]: significant reduction in SVP

OC[C@H]1O[C@@](CO)(O[C@H]2O[C@H](CO)[C@@H](O)[C@H](O)[C@H]2O)[C@@H](O)[C@@H]1O [sucrose, reference compound]
plateau of PS20 degradation curve [4]: 44%
